# Measurements reported in PMC12396409, “Screening and hit evaluation of a microbial metabolite library against the pathogenic Plasmodium falciparum and Toxoplasma gondii parasites” (International Journal for Parasitology: Drugs and Drug …, 2025).
# Like-named read-outs stand apart in the source and are kept apart here.
# Tests used:
# [1] = system: P. falciparum 3D7 parasites; experiment: P. falciparum growth inhibition assay, 1-cycle (72 h treatment), SYBR DNA staining (library screen at 2 μg/mL and dose-response); type: cell-based, Plasmodium falciparum; conditions: for activity at 2 µg/mL: Plasmodium falciparum, 3D7
# [2] = system: P. falciparum 3D7 parasites; experiment: P. falciparum growth inhibition assay, 2-cycle (120 h treatment), delayed-death screen and dose-response; type: cell-based, Plasmodium falciparum; conditions: for activity at 2 µg/mL: Plasmodium falciparum, 3D7
# [3] = system: T. gondii RH strain (RH-Tub-eYFP) tachyzoites; experiment: microbe, parasite or virus in culture; type: cell-based, Toxoplasma gondii; conditions: 72 h; for percent parasite growth at 2 µg/mL: Toxoplasma gondii
# [4] = P. falciparum, 72 h, screen at 2 μg/mL, replicate 1
# [5] = P. falciparum, 72 h, screen at 2 μg/mL, replicate 2
# [6] = P. falciparum, 120 h, screen at 2 μg/mL, replicate 1
# [7] = P. falciparum, 120 h, screen at 2 μg/mL, replicate 2
# [8] = T. gondii, screen at 2 μg/mL, replicate 1
# [9] = T. gondii, screen at 2 μg/mL, replicate 2
# [10] = P. falciparum, 72 h, parasite screen 2 μg/mL, % growth, replicate 1
# [11] = P. falciparum, 72 h, parasite screen 2 μg/mL, % growth, replicate 2
# [12] = P. falciparum, 120 h, parasite screen 2 μg/mL, % growth, replicate 1
# [13] = P. falciparum, 120 h, parasite screen 2 μg/mL, % growth, replicate 2
# [14] = T. gondii, parasite screen 2 μg/mL, % growth, replicate 1
# [15] = T. gondii, parasite screen 2 μg/mL, % growth, replicate 2
SMILES,"Pf_72h_%Growth_Rep1 [1, 4]","Pf_72h_%Growth_Rep2 [1, 5]","Pf_120h_%Growth_Rep1 [2, 6]","Pf_120h_%Growth_Rep2 [2, 7]","Tg_72h_%Growth_Rep1 [3, 8]","Tg_72h_%Growth_Rep2 [3, 9]","Pf_72h_%Growth_Rep1 [1, 10]","Pf_72h_%Growth_Rep2 [1, 11]","Pf_120h_%Growth_Rep1 [2, 12]","Pf_120h_%Growth_Rep2 [2, 13]","Tg_72h_%Growth_Rep1 [3, 14]","Tg_72h_%Growth_Rep2 [3, 15]",other results
CC1=CC2C(O)CCCC2C(C)(C(O)=C2C(=O)CNC2=O)C1CCC(C)C(O)/C(C)=C/CC(O)/C=C/C(C)C(O)/C=C/CC(O)/C=C/CC(O)CC1CCCN1C(=N)N (stereo not shown) [TPU-0037C],76.69%,109.21%,83.44%,78.76%,129.91%,76.44%,,,,,,,
COc1cc(C)c(C(=O)Oc2cc(C)c(C(=O)O)c(O)c2)c(O)c1 [Evernic acid],,,,,,,,,,,,,"activity at 2 µg/mL ([1]; library screen at 2 μg/mL, 72 h, % growth, replicate 1, read-out: Pf_72h_%Growth_Rep1): 86.3%; activity at 2 µg/mL ([1]; library screen at 2 μg/mL, 72 h, % growth, replicate 2, read-out: Pf_72h_%Growth_Rep2): 86.5%; activity at 2 µg/mL ([2]; library screen at 2 μg/mL, 120 h, % growth, replicate 1, read-out: Pf_120h_%Growth_Rep1): 97.5%; activity at 2 µg/mL ([2]; library screen at 2 μg/mL, 120 h, % growth, replicate 2, read-out: Pf_120h_%Growth_Rep2): 94.9%; percent parasite growth at 2 µg/mL ([3]; library screen at 2 μg/mL, % growth, replicate 1, read-out: Tg_72h_%Growth_Rep1): 133%; percent parasite growth at 2 µg/mL ([3]; library screen at 2 μg/mL, % growth, replicate 2, read-out: Tg_72h_%Growth_Rep2): 102%"
COc1cc(/C=C/C(=O)O)cc(OC)c1O [Sinapic acid],,,,,,,90.37%,1.58%,115.97%,-9.79%,101.84%,75.80%,"Mean ([1]; P. falciparum, 72 h, 2 μg/mL, mean of both replicates, growth (% of control)): 45.98"
CCCCCCCCCCCCCCCC(=O)C1=C(O)C(CO)OC1=O (stereo not shown) [RK-682],,,,,,,82.69%,35.30%,73.75%,72.22%,107.18%,84.15%,
COc1cc(C[C@H]2C(=O)OC[C@@H]2Cc2ccc3c(c2)OCO3)ccc1O [Pluviatolide],,,,,,,81.43%,88.63%,90.86%,133.22%,140.42%,93.56%,
CN1CCC2(c3cccc4c3NC3N(C)CCC43C34CCN(C)C3Nc3ccccc34)c3ccccc3NC12 (stereo not shown) [BIA-H1948],,,,,,,,,,,,,"Pf_72h_%Growth_Rep1 ([1]; P. falciparum 3D7, 72 h, library screen at 2 μg/mL, % growth, replicate 1): 8.04%; Pf_72h_%Growth_Rep2 ([1]; P. falciparum 3D7, 72 h, library screen at 2 μg/mL, % growth, replicate 2): 0.51%; Pf_120h_%Growth_Rep1 ([2]; P. falciparum 3D7, 120 h, library screen at 2 μg/mL, % growth, replicate 1): 10.24%; Pf_120h_%Growth_Rep2 ([2]; P. falciparum 3D7, 120 h, library screen at 2 μg/mL, % growth, replicate 2): -13.19%; Tg_72h_%Growth_Rep1 ([3]; T. gondii RH, library screen at 2 μg/mL, % growth, replicate 1): 27.32%; Tg_72h_%Growth_Rep2 ([3]; T. gondii RH, library screen at 2 μg/mL, % growth, replicate 2): 71.35%"
O=C(O)c1c(=O)cccc2ssc12 [Tropodithietic acid],3.58%,-3.15%,21.29%,16.13%,1.16%,1.78%,,,,,,,
C[C@H]1NC(=O)[C@@H]2CCCN2C1=O [Cyclo(D-Ala-L-Pro)],84.19%,89.96%,102.13%,92.71%,121.18%,102.00%,,,,,,,
CC1CC=CC=CC=CC=CC(OC2OC(C)C(O)C(N)C2O)CC2OC(O)(CC(O)CC3OC3C=CC(=O)O1)CC(O)C2C(=O)O (stereo not shown) [BIA-P1210],,,,,,,,,,,,,"Pf_72h_%Growth_Rep1 ([1]; P. falciparum 3D7, 72 h, parasite screen at 2 μg/mL, % growth, replicate 1): 82.66%; Pf_72h_%Growth_Rep2 ([1]; P. falciparum 3D7, 72 h, parasite screen at 2 μg/mL, % growth, replicate 2): 61.24%; Pf_120h_%Growth_Rep1 ([2]; P. falciparum 3D7, 120 h, parasite screen at 2 μg/mL, % growth, replicate 1): 62.24%; Pf_120h_%Growth_Rep2 ([2]; P. falciparum 3D7, 120 h, parasite screen at 2 μg/mL, % growth, replicate 2): 79.36%; Tg_72h_%Growth_Rep1 ([3]; T. gondii, parasite screen at 2 μg/mL, % growth, replicate 1): 91.98%; Tg_72h_%Growth_Rep2 ([3]; T. gondii, parasite screen at 2 μg/mL, % growth, replicate 2): 100.38%"
